Patent US10196359B2, “2-alkyloxy benzene formyl arylamine compound and pharmaceutical use thereof” (FUDAN UNIVERSITY, priority 2014, dated 2019)
Read-outs that look alike come from different tables or passages of the source.

Target: T1, Sphingomyelin Synthase 2 (SMS2) (Homo sapiens, UniProt Q8NHU3)
T1 construct: made in house; used as homogenate
T1 sequence (Q8NHU3 1-365): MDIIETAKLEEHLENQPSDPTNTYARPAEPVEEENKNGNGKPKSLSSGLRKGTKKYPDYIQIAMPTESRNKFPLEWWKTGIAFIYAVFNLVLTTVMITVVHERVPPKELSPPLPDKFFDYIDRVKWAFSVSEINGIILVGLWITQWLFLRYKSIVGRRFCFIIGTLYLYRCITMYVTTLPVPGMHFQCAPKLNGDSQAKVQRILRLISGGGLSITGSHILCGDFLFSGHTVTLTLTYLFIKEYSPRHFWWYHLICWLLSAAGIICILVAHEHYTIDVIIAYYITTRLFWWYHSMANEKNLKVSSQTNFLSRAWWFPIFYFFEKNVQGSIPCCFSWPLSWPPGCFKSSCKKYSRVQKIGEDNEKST
Assay: In vitro inhibition of sphingomyelin synthase 2, HPLC fluorogenic quantitative detecting method (C6-NBD-ceramide to C6-NBD-SM, SMS2 high-expressed insect cell homogenate)
Assay type: biochemical
Settings: for IC50: read-out: SMS2 Median Inhibitory Concentration IC50
Description: The second aim of the present invention is to show the use of 2-alkoxy benzene formyl arylamines in preparing SMS small-molecule inhibitors. This invention evaluate SMS inhibitory activity of 2-alkoxy benzene formyl arylamines as scheme I through HPLC fluorogenic quantitative detecting method reported (Xiaodong Deng; Hong Sun; et al. Analytical Letters, 2012, 45:12, 1581-1589), which can make it possible to calculate the catalytic activity difference of SMS treated with inhibitors or not through content changes of NBD-ceramide and NBD-sphingomyelin.
9. The organic solvents were purchased from Shanghai Sinopharm Reagent Company; methanol is of HPLC grade; water is ultrapure water filtrated by Milli-Q pump and deionized and ultrafiltrated by 0.22 μm ultrafiltration membrane. Other biological supplies are purchased in domestic companies. 10. Preparation of SMS homogenate extraction buffer (Buffer1): (50 mM Tris hydrochloride, pH 7.4, 5% anhydrous sucrose, 1 mM ethylenediaminetetraacetic acid) 1.2114 g tris(hydroxymethyl)aminomethane hydrochloride (Tris-HCl) was dissolved in 100 ml distilled water. Then 84 ml 0.1 mol/L hydrochloric acid was added. Constant volume to 200 ml. Finally, 10 g sucrose and 58.45 mg EDTA were dissolved in the mixture. 11. Preparation of SMS test buffer […]: (100 mM Hepes, 30 mM MnCl2, 3% fatty acid free BSA): 1.1916 g 4-(2-hydroxyethyl)-1-peperazineethanesulfonic acid (Hepes), 0.2969 g MnCl2.4H2O and 0.3 g fatty acid free bovine serum albumin were dissolved in distilled water then constant volume to 50 ml. 12. Preparation of under tested compound solution: To each accurate weighed compound for 1˜2 mg, an appropriate amount of DMSO was added to formulate a stock solution of 6 mM precisely. To a certain volume of the DMSO stock solution of the test compound, the appropriate volume of DMSO was added to dilute the solution to the desired concentration. 13. SMS2 high-expressed insect cell homogenate was prepared by Xu Yanhui group from Institutes of Biomedical Sciences, Fudan University. Part 1 Activity Assay for Inhibition of 2-Alkoxy-Benzoyl Aromatic Amines to Sphingomyelin Synthase 2
250 μL tri-distilled water, 30 μL Buffer2, 4 μL SMS2 high-expressed insect cell homogenate (total protein content is 0.5 μg/μL) and 10 μL DMSO or DMSO solution of under tested compound were added to 1.5 mL eppendorf tube, vortex mixed for 30 seconds and then incubated in a 37° C. water bath for 0.5 h. 3 μL ethanol solution of DMPC (40 mM) and 3 μL ethanol solution of C6-NBD-Ceramide (1.16 mM) were added, vortex mixed for 30 seconds, and then incubate in a 37° C. water bath for 2.0 hours. To it 600 μL anhydrous ethanol was added vortex mixed for 1 minute and centrifuged 10 minutes in 10000 rpm and 600 μL supernatant was taken out and stored at 4° C. for HPLC analysis.
Using the same HPLC fluorogenic quantitative detecting method as reference (Xiaodong Deng; Hong Sun; et al. Analytical Letters, 2012, 45:12, 1581-1589) to analysize samples obtained above. Analysize and record peak areas of C6-NBD-SM (Asm) and C6-NBD-Ceramide (Acer) of each sample from blank group, positive control group (compound D2) and under tested compound group. The data were parallelly determined for 3 times. Calculate inhibition rate from the formula below: […]
The DMSO stock solution of under tested compound (6 mM) was diluted stepwise into five concentration gradient. 10 μL solution of each concentration was added into the trial system to prepare samples with the method mentioned in the first step of application case 12. The Asm values of the five concentration solution of tested compound were measured, and the inhibition rate under the five concentration were calculated and fitted to obtain median inhibitory concentration (IC50). Each compound was measured three parallel groups. SMS2 median inhibitory concentration of Scheme I-1˜I-60 are listed below in Table 1: […]

[1] = at 10 μM, read-out: inhibition rate
[2] = five concentrations, three parallel groups, experimental value

| Compound | inhibition at 10 µM [1] [%] | IC50 [2] [nM] | other results |
| --- | --- | --- | --- |
| COc1ccccc1COc1ccccc1C(=O)Nc1cccnc1 [Scheme I-24, 2-((2-methoxy)benzyloxy)-N-(pyridin-3-yl) benzamide] | 89.4 | 800 | – |
| O=C(Nc1cccnc1)c1ccccc1OCc1cccc(F)c1 [Scheme I-2, 2-(3-fluoro-benzyloxy)-N-(pyridin-3-yl) benzamide] | – | – | IC50: 1600 nM; inhibition at 5 µM (read-out: inhibition rate): 69.3% |
| 2-((5-chloro-hexyloxy) benzyloxy)-N-(pyridin-3-yl) benzamide [Scheme I-39] | – | 500 | inhibition rate (at 5 μM): 85.5% |
| 2-((2-chloro-5-fluoro) benzyloxy)-N-(pyridin-3-yl) benzamide [Scheme I-16] | – | 700 | inhibition rate (at 5 μM): 75.7% |
| COCCCOc1ccc(Cl)cc1COc1ccccc1C(=O)Nc1cccnc1 [Scheme I-49, 2-((5-chloro-2-(3-methoxy-propoxy))benzyloxy)-N-(pyridin-3-yl) benzamide] | 75.3 | 4100 | – |
| 2-(3-bromo-benzyloxy)-N-(pyridin-3-yl) benzamide [Scheme I-8] | – | > 50000 | inhibition rate (at 50 μM): 67.1% |
| 2-(2-cyano-benzyloxy)-N-(pyridin-3-yl) benzamide [Scheme I-6] | – | 31800 | inhibition rate (at 50 μM): 50.0% |
| 2-((2,5-dichloro) benzyloxy)-N-(pyridin-3-yl) benzamide [Scheme I-33] | – | 1000 | inhibition rate (at 10 μM): 87.9% |
| O=C(Nc1cccnc1)c1ccccc1OCc1ccccc1F [Scheme I-1, 2-(2-fluoro-benzyloxy)-N-(pyridin-3-yl) benzamide] | – | – | IC50: 3500 nM; inhibition at 5 µM (read-out: inhibition rate): 53.8% |
| 2-((2-ethoxy) benzyloxy)-N-(pyridin-3-yl) benzamide [Scheme I-30] | – | 1200 | inhibition rate (at 10 μM): 86.3% |
| 2-((2-benzyloxy) benzyloxy)-N-(pyridin-3-yl) benzamide [Scheme I-26] | – | 2200 | inhibition rate (at 10 μM): 76.9% |
| O=C(Nc1cccnc1)c1ccccc1OCc1cccc(Cl)c1 [Scheme I-7, 2-(3-chloro-benzyloxy)-N-(pyridin-3-yl) benzamide] | – | – | IC50: 1400 nM; inhibition at 5 µM (read-out: inhibition rate): 70.6% |
| O=C(Nc1ccccn1)c1ccccc1OCc1ccccc1 [Scheme I-52, 2-benzyloxy-N-(pyridin-2-yl) benzamide] | – | 11700 | inhibition at 100 µM (at 100 μM, read-out: inhibition rate): 60.1% |
| O=C(Nc1cccnc1)c1ccccc1OCc1cccc([N+](=O)[O-])c1 [Scheme I-3, 2-(3-nitro-benzyloxy)-N-(pyridin-3-yl) benzamide] | – | > 50000 | inhibition at 50 µM (at 50 μM, read-out: inhibition rate): 64.6% |
| 2-((2-ethyl) benzyloxy)-N-(pyridin-3-yl) benzamide [Scheme I-27] | – | 900 | inhibition rate (at 5 μM): 78.4% |
| 2-((4-ethyl) benzyloxy)-N-(pyridin-3-yl) benzamide [Scheme I-28] | – | > 100000 | inhibition rate (at 10 μM): 10.1% |
| 2-((5-chloro-2-heptyloxy) benzyloxy)-N-(pyridin-3-yl) benzamide [Scheme I-40] | – | 400 | inhibition rate (at 5 μM): 87.1% |
| CCOC(=O)COc1cccc(COc2ccccc2C(=O)Nc2cccnc2)c1 [Scheme I-22] | 15.3 | > 100000 | – |

| Compound | inhibition at 10 µM [1] [%] | IC50 [2] [nM] | other results |
| --- | --- | --- | --- |
| O=C(Nc1cccnc1)c1ccccc1OCc1ccccc1C(F)(F)F [Scheme I-42, 2-((2-trifluoromethyl)benzyloxy)-N-(pyridin-3-yl) benzamide] | – | 2100 | inhibition rate (at 5 μM): 65.5% |
| Cc1ccc(Cl)cc1COc1ccccc1C(=O)Nc1cccnc1 [Scheme I-43, 2-((5-chloro-2-methyl)benzyloxy)-N-(pyridin-3-yl) benzamide] | – | 1100 | inhibition rate (at 5 μM): 74.8% |
| 2-((4-methyl) benzyloxy)-N-(pyridin-3-yl) benzamide [Scheme I-14] | – | > 25000 | inhibition rate (at 50 μM): 69.0% |
| 2-((2,6-dimethyl) benzyloxy)-N-(pyridin-3-yl) benzamide [Scheme I-29] | – | 900 | inhibition rate (at 10 μM): 88.8% |
| 2-((4-nitro) benzyloxy)-N-(pyridin-3-yl) benzamide [Scheme I-13] | – | > 100000 | inhibition rate (at 50 μM): 11.8% |
| O=C(Nc1cccnc1)c1ccccc1OCc1c(F)cccc1Cl [Scheme I-32, 2-((2-chloro-6-fluoro)benzyloxy)-N-(pyridin-3-yl) benzamide] | – | – | IC50: 1500 nM; inhibition at 10 µM (read-out: inhibition rate): 82.3% |
| O=C(O)c1ccc(COc2ccccc2C(=O)Nc2cccnc2)cc1 [Scheme I-46, 4-((2-(pyridin-3-ylcarbamoyl)phenoxy)methyl) benzoic acid] | 2.6 | > 100000 | – |
| O=C(Nc1cccnc1)c1ccc(Br)cc1OCc1ccccc1Cl [Scheme I-58, 4-bromo-2-(2-chloro-benzyloxy)-N-(pyridin-3-yl) benzamide] | 19.4 | > 50000 | – |
| O=C(Nc1cccnc1)c1ccccc1OCc1ccccc1OCCCCCCCl [Scheme I-36, 2-(2-(6-Chloro-hexyloxy)benzyloxy)-N-(pyridin-3-yl) benzamide] | 91.5 | 500 | – |
| 2-((2-methoxy-5-chloro) benzyloxy)-N-(pyridin-3-yl) benzamide [Scheme I-31] | – | 700 | inhibition rate (at 10 μM): 92.4% |
| CCOC(=O)c1ccc(COc2ccccc2C(=O)Nc2cccnc2)cc1 [Scheme I-19, 4-((2-(pyridin-3-ylcarbamoyl)phenoxy)methyl) benzene carboxylic acid ethyl ester] | 2.9 | > 100000 | – |
| O=C(Nc1cccnc1)c1cc([N+](=O)[O-])ccc1OCc1ccccc1Cl [Scheme I-57, 2-(2-chloro-benzyloxy)-5-nitro-N-(pyridin-3-yl) benzamide] | 1.7 | > 100000 | – |
| 2-((4-trifluoromethyl) benzyloxy)-N-(pyridin-3-yl) benzamide [Scheme I-20] | – | > 100000 | inhibition rate (at 10 μM): 3.9% |
| O=C(Nc1cccnc1)c1cc(Cl)ccc1OCc1cc(F)ccc1Cl [Scheme I-55, 5-chloro-2-((2-chloro-5-fluoro)benzyloxy)-N-(pyridin-3-yl) benzamide] | 31.7 | > 25000 | – |
| O=C(O)COc1ccccc1COc1ccccc1C(=O)Nc1cccnc1 [Scheme I-47, 2-(2-((2-(pyridin-3-ylcarbamoyl)phenoxy)methyl)phenoxy) acetic acid] | 7.4 | > 100000 | – |
| O=C(Nc1cccnc1)c1ccccc1OCc1cccc(C(F)(F)F)c1 [Scheme I-41, 2-((3-trifluoromethyl)benzyloxy)-N-(pyridin-3-yl) benzamide] | 10 | > 100000 | – |
| O=C(Nc1cccnc1)c1ccccc1OCc1ccccc1OCCCCCCl [Scheme I-35, 2-(2-(5-chloro-pentoxy)benzyloxy)-N-(pyridin-3-yl) benzamide] | 91.3 | 700 | – |
